Where two headings read alike, the source gives them in different places.
Columns and labels:
[1] = absence of a second agent, Table 6B

Substance | MIC, A. baumannii ATCC BAA-747 (A. baumannii; sole activity, Table 6C) [micrograms/mL] | MIC, A. baumannii NCTC 13424 (A. baumannii; sole activity, Table 6C) [micrograms/mL] | MIC, E. coli ATCC 25922 (E. coli; sole activity, Table 6C) [micrograms/mL] | MIC, E. coli NCTC 13441 (E. coli; sole activity, Table 6C) [micrograms/mL] | MIC, P. aeruginosa ATCC 27853 (P. aeruginosa; sole activity, Table 6C) [micrograms/mL] | MIC, P. aeruginosa CCUG 59347 (P. aeruginosa; sole activity, Table 6C) [micrograms/mL] | MIC, K. pneumoniae ATCC 4352 (K. pneumoniae; sole activity, Table 6C) [micrograms/mL] | MIC, K. pneumoniae ATCC BAA-2146 (K. pneumoniae; sole activity, Table 6C) [micrograms/mL] | MIC, A. baumannii ATCC BAA-747 (A. baumannii; [1]) [micrograms/mL] | MIC, A. baumannii NCTC 13424 (A. baumannii; [1]) [micrograms/mL] | MIC, E. coli ATCC 25922 (E. coli; [1]) [micrograms/mL] | MIC, E. coli NCTC 13441 (E. coli; [1]) [micrograms/mL] | MIC, P. aeruginosa ATCC 27853 (P. aeruginosa; [1]) [micrograms/mL] | MIC, P. aeruginosa CCUG 59347 (P. aeruginosa; [1]) [micrograms/mL] | MIC, K. pneumoniae ATCC 4352 (K. pneumoniae; [1]) [micrograms/mL] | MIC, K. pneumoniae ATCC BAA-2146 (K. pneumoniae; [1]) [micrograms/mL]
1-(2- trifluoromethylben- zyl)piperazine- 2-carbonyl Polymyxin B nonapeptide [Example D55] | 0.25 | 0.5 | 0.25 | 0.25 | 0.5 | 1 | 0.25 | 0.5 | – | – | – | – | – | – | – | –
2-(2-aminoethyl)-4- methyl pentanoyl polymyxin B nonapeptide [Example D46] | – | – | – | – | – | – | – | – | 1 | 2 | 1 | 1 | 0.5 | 1 | 0.5 | 1
2-aminomethyl-3- naphthalen-2-yl- propanoyl polymyxin B nonapeptide [Example D40] | – | – | – | – | – | – | – | – | >8 | 8 | 2 | 2 | 0.5 | 1 | 2 | 4
4-octylpiperidine-3- carbonyl polymyxin B nonapeptide [Example D34] | – | – | – | – | – | – | – | – | 2 | 2 | 1 | 1 | 1 | 2 | 2 | 2
(trans-6- octylpiperidine)-3- carbonyl polymyxin B nonapeptide [Example D19] | – | – | – | – | – | – | – | – | 2 | – | 2 | 2 | 0.5 | 1 | 2 | 4
(S)-4-amino-2- (benzyloxy)butan- oyl Polymyxin B nonapeptide [Example D54] | 1 | 4 | 0.25 | 0.5 | 0.5 | 1 | 0.125 | 0.25 | – | – | – | – | – | – | – | –
(S)-3-amino-2- (benzylamino)pro- panoyl Polymyxin B nonapeptide [Example D59] | 2 | 1 | 0.5 | 0.5 | 0.5 | 1 | 0.5 | 0.5 | – | – | – | – | – | – | – | –
trans-4- Phenylpyrrolidine-3- carbonyl polymyxin B nonapeptide [Example D1] | – | – | – | – | – | – | – | – | 4 | 4 | 4 | 4 | 0.5 | 2 | 2 | 1
(S)-1-((6-oxo-1- phenyl-1,6- dihydropyridin-3- yl)methyl)piperazine- 2-carbonyl Polymyxin B nonapeptide [Example D60] | 4 | 2 | 0.25 | 0.5 | 1 | 2 | 0.25 | 0.5 | – | – | – | – | – | – | – | –
4-Amino-2-benzyl butanoylpolymyxin B nonapeptide [Example D3] | – | – | – | – | – | – | – | – | >8 | >8 | 0.25 | 0.5 | 0.5 | 1 | 1 | 2
6- isobutylpiperazine- 2-carbonyl L- Thr-L-Dap- polymyxin B heptapeptide [Example D80] | 0.5 | 0.5 | 0.5 | – | 0.5 | 0.5 | 0.25 | – | – | – | – | – | – | – | – | –
(cis-6-octylpiperidine)- 3-carbonyl polymyxin B nonapeptide [Example D16] | – | – | – | – | – | – | – | – | >8 | >8 | >8 | >8 | 8 | 1 | >8 | >8
5-((2- methylpropyl)sulfon- amido)piperidine- 3-carbonyl- polymyxin B nonapeptide [Example D73] | 4 | 2 | 0.25 | 0.5 | 1 | 2 | 0.5 | 0.5 | – | – | – | – | – | – | – | –
(cis-6-octylpiperidine)- 3-carbonyl polymyxin B nonapeptide [Example D17] | – | – | – | – | – | – | – | – | 2 | 4 | 2 | 2 | 0.5 | 0.5 | 2 | 2
(cis-5-(2-methylpropyl) piperidine)-3-carbonyl polymyxin B nonapeptide [Example D48] | – | – | – | – | – | – | – | – | 0.5 | 0.5 | 0.125 | 0.125 | 0.25 | 1 | 0.125 | 0.25
5- (isobutylamino)pi- peridine-3- carbonyl Polymyxin B nonapeptide [Example D62] | 4 | 4 | 0.5 | 1 | 1 | 2 | 0.5 | 1 | – | – | – | – | – | – | – | –
(trans-6- octylpiperidine)-3- carbonyl polymyxin B nonapeptide [Example D18] | – | – | – | – | – | – | – | – | >8 | >8 | 4 | 4 | 4 | 2 | 8 | >8
1,2,3,4- tetrahydroisoquinoline- 4-carbonyl polymyxin B nonapeptide [Example D14] | – | – | – | – | – | – | – | – | >8 | >8 | >8 | >8 | 1 | 4 | >8 | >8
2-aminomethyl-3- naphthalen-2-yl- propanoyl polymyxin B nonapeptide [Example D41] | – | – | – | – | – | – | – | – | 2 | 1 | 1 | 1 | 0.5 | 1 | 2 | –

Source: patent US20210221848A1, “POLYMYXIN DERIVATIVES AND THEIR USE IN COMBINATION THERAPY TOGETHER WITH DIFFERENT ANTIBIOTICS” (priority 2014, published 2021)
